Experimental data reported in ChEMBL document CHEMBL1148317, “A medicinal chemistry perspective on artemisinin and related endoperoxides” (J Med Chem, 2004).

Key:
[1] = test system: Mus musculus; assay: In vivo antimalarial activity to reduce parasitaemia in mice (Mus musculus) infected with Plasmodium berghei by 50% of the control; assay type: functional
[2] = test system: Plasmodium falciparum; assay: In vitro antimalarial activity for Plasmodium falciparum; assay type: functional, organism-based
[3] = test system: Plasmodium falciparum; assay: Inhibitory concentration against Plasmodium falciparum
[4] = test system: Plasmodium falciparum; assay: as above; remark: listed apart in the source
[5] = Half life of compound was determined; assay type: ADME
[6] = test system: Plasmodium falciparum; assay: In vitro antimalarial activity for Plasmodium falciparum; range 3 nM to 10 nM; assay type: functional, organism-based
[7] = test system: Mus musculus; assay: In vivo antimalarial activity to reduce parasitaemia in mice (Mus musculus) infected with Plasmodium berghei by 50% of the control; range 1 mg/kg to 3 mg/kg; assay type: functional

SMILES	ED50 [1] [mg/kg]	IC50 [2] [nM]	also measured
Fc1ccc(C2=C[C@H]3OC4(CCCC4)OO[C@@]3(c3ccc(F)cc3)C2)cc1	2.7	4	–
C[C@@H]1CC[C@H]2[C@@H](C)C(=O)O[C@@H]3O[C@@]4(C)CC[C@@H]1[C@]32OO4 [ARTEMISININ]	–	–	IC50 [3]: 10 nM
C1CCCCCC2(CCCCC1)OOCCCOO2	20	25	IC50 [4]: 3 nM
Clc1ccc2c(NCCNC3CCC4(CC3)OOC3(O4)C4CC5CC(C4)CC3C5)ccnc2c1 (stereo unspecified)	–	2.5	–
CO[C@H]1O[C@@]2(c3ccc(F)cc3)CCC[C@H]3CCCC[C@]31OO2	10	30	–
C[C@H]1[C@H](OCc2ccc(C(=O)[O-])cc2)O[C@@H]2O[C@]3(C)CCC[C@H]4[C@H](C)CC[C@@H]1[C@@]24OO3.[Na+]	–	–	half-life [5]: 180 min
OC1CCC2(CC1)OOC1(O2)C2CC3CC(C2)CC1C3 (stereo unspecified)	–	–	IC50 [6]: 10 nM; ED50 [7]: 3 mg/kg
CO[C@H]1O[C@@H](c2ccc(C(=O)O)cc2)C2CC[C@H]3CCCCC31OO2 (stereo partly specified)	10	30	–
CC1(OCc2ccccc2)CCC2C[C@@H]1OO[C@]2(C)CS(=O)(=O)c1ccccc1 (stereo partly specified)	0.43	9.4	–
